# Test results as given in US8614247B2, “Methods for preventing, attenuating or treating pulmonary hypertension using a serotonin transporter inhibitor, and pharmaceutical compositions for the treatment thereof” (Institut National de la Sante et de la Recherche Medicale, priority 2003, dated 2013).
# Experiments:
# [1] = system: human pulmonary artery smooth muscle cells (PA-SMCs); experiment: 5-HT-induced proliferation of human PA-SMCs ([3H]thymidine incorporation); format: cell-based; conditions: cells in 0.2% FCS; for 5-HT-induced increase in [3H]thymidine incorporation (mitogenic response to 5-HT): drug at 10^−5 M, added before 5-HT
# Experimental: Effect of 5-HT on the Proliferation of Human Pulmonary Artery Smooth Muscle Cells (PA-SMCs)
# The methods used for the culture and the characterization of human PA-SMCs have been previously described (Eddahibi, Humbert et al. 2001). In brief, PA-SMCs were obtained from patients undergoing lung resection for cancer. They were seeded in 24-well plates at a density of 5×10^4 cells/well and allowed to adhere in DMEM supplemented with 15% fœtal calf serum (FCS). Cells were then subjected to 48 h of growth arrest in medium containing only 0.2% FCS before being incubated in DMEM supplemented with 0.2% FCS, 0.6 mM of ascorbic acid, 0.1 mM of iproniazid (a monoamine oxidase inhibitor), 0.6 μCi/mL of [^3H]thymidine, with or without 5-HT (10^−8 to 10^−6 M). […] Each of these drugs was added 20 min before 5-HT. After incubation for 24 hours, cells were washed twice with PBS, treated with ice-cold 10% trichloroacetic acid (1 ml/well), and dissolved in 0.1 N NaOH (0.5 ml/well). The incorporated radioactivity was counted and reported as cpm per well.
# mice in normoxia = experiment: Physiological parameters during normoxia after treatment; format: in vivo, mice (C57BL6/J); conditions: control mice 88±7 mmHg
# [2] = system: mice exposed to acute hypoxia; experiment: Hemodynamic response (RVSP) of normoxic mice to acute hypoxia; format: in vivo, mice (C57BL6/J); conditions: two-day pretreatment; for pressure (RVSP) response to acute hypoxia: antagonists 2 mg/kg/day i.p., compared with vehicle-treated controls
# Experimental: All experiments were performed using adult male mice (C57BL6/J, 8 weeks old) in conformity with the institutional guidelines that are in compliance with national and international laws and policies.
# Mice were anaesthetized with ketamine (60 mg/kg, i.p) and xylazine (10 mg/kg, i.p). The trachea was cannulated, and the lungs were ventilated with room air at a tidal volume of 0.2 ml and a rate of 90 breaths per minute. Systemic arterial pressure was determined by catheterization of the carotid artery. A 26-gauge needle was then introduced percutaneously into the right ventricle via the subxyphoid approach. Right ventricular systolic pressure (RVSP) was measured using a Gould P10 EZ pressure transducer connected to pressure modules and a Gould TA 550 recorder. RVSP and heart rate were recorded first while the animal was ventilated with room air and then after 5 min of ventilation with hypoxic gas mixture (8% O2, 92% N2). […] If the heart rate fell below 300 bpm, measurements were excluded from analysis.
# To investigate the effects of 5-HTT inhibition and/or 5-HT receptor blockade on acute hypoxic vasoconstriction, nine groups of mice (6-7 in each group) were studied. […] The last group consisted of control animals that received distilled water by gavage. The treatments were performed for two days and acute hypoxic vasoconstriction was measured on the following day one hour after the last treatment.
# 5-HTT = 5-HTT (Rattus norvegicus, UniProt P31652); conditions: cited from earlier work
# 5-HTT, sequence (P31652 whole entry): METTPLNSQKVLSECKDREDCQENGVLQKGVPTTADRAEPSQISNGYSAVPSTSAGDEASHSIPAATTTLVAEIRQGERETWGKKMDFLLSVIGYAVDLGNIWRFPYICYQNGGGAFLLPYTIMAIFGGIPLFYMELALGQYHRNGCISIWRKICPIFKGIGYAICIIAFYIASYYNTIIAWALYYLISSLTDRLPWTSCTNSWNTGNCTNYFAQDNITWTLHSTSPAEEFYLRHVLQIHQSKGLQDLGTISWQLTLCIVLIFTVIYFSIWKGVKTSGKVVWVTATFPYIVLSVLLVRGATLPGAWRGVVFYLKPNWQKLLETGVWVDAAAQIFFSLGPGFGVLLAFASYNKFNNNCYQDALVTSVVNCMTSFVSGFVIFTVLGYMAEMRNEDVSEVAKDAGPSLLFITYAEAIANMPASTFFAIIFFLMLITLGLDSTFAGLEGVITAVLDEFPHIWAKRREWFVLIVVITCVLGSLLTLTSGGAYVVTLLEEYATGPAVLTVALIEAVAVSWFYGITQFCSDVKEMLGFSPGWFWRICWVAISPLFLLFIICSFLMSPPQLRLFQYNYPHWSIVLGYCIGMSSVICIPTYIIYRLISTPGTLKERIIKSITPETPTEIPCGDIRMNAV
# rats = conditions: Keegan et al. 2001; cited from earlier work
# [3] = system: mice exposed to chronic hypoxia; format: in vivo, mice (C57BL6/J); conditions: for muscularization of distal pulmonary vessels: vs control mice under similar hypoxic conditions; for hypoxia-induced increase in RVSP: 2-week hypoxia (10% O2), daily treatment: citalopram, fluoxetine 10 mg/kg/day, ketanserin 2 mg/kg/day, GR127935 2 or 10 mg/kg/day, vs vehicle
# Experimental: All experiments were performed using adult male mice (C57BL6/J, 8 weeks old) in conformity with the institutional guidelines that are in compliance with national and international laws and policies. […] To establish the hypoxic environment, the chamber was flushed with a mixture of room air and nitrogen, and the gas was recirculated. The chamber environment was monitored using an oxygen analyzer (Servomex OA150, Crowborough, England). Carbon dioxide was removed by soda lime granules, and excess humidity was prevented by cooling the recirculation circuit. The chamber temperature was maintained at 22-24° C. The chamber was opened every other day for 1 hour to clean the cages and replenish food and water supplies. Normoxic mice were kept in the same room, with the same light-dark cycle. […] After incision of the abdomen and diaphragm, a 26-gauge needle connected to a pressure transducer was inserted into the right ventricle, and RVSP was recorded immediately. Blood was then sampled for hematocrit determination. […] The right ventricle (RV) was dissected from the left ventricle+septum (LV+S), and these dissected samples were weighed. The lungs were fixed by intratracheal infusion of 4% aqueous buffered formalin at a pressure of 23 cm H2O. The entire specimen was immersed in a bath of the same fixative for one week. A midsagittal slice of the right lung including the apical, azygous and diaphragmatic lobes was processed for paraffin embedding. Sections (5 μm thick) were cut for light microscopy and stained with hematoxylin-phloxin-saffron and orcein-picroindigo-carmine. In each mouse, a total of 50-60 […] vessels accompanying either alveolar ducts or alveoli were analyzed by an observer blinded to treatment. Each vessel was categorized as nonmuscular (no evidence of any vessel wall muscularization), partially muscular (SMCs identifiable in less than three-fourths of the vessel circumference), or fully muscular (SMCs in more than three-fourths of the vessel circumference). […] The percentage of pulmonary vessels in each muscularization category was determined by dividing the number of vessels in that category by the total number counted in the same experimental group. […] The animals were treated once a day during the two-week exposure to hypoxia.
# [4] = system: rat lung SMC and lung fibroblasts; conditions: cited from earlier work
# experimental hypoxic PH = conditions: previous studies (Eddahibi, Raffestin et al. 1998); cited from earlier work
# [5] = 2-week chronic hypoxia, daily treatment
structure (smiles),measurement,setting,value
"NCCc1c[nH]c2ccc(O)cc12 [5-HT, 5-hydroxytryptamine]",[3H]thymidine incorporation,[1]; 5-HT 10^−8-10^−6 M,concentration-dependent increase
O=C(c1ccc(F)cc1)C1CCN(CCn2c(=O)[nH]c3ccccc3c2=O)CC1 [ketanserin],Mean systemic arterial pressure,mice in normoxia,83±4 mmHg
same,pressure (RVSP) response to acute hypoxia,[2],altered neither the response to acute hypoxia
same,5-HT-induced increase in [3H]thymidine incorporation (mitogenic response to 5-HT),[1],not affected
NC1=NCC(c2ccccc2)O1 (stereo not shown) [a minorex],5-HTT substrate,5-HTT,5-HTT substrates
CC(C)(N)Cc1ccc(Cl)cc1 [chlorphentermine],5-HTT substrate,5-HTT,5-HTT substrates
"COc1ccc(NC(=O)c2ccc(-c3ccc(-c4noc(C)n4)cc3C)cc2)cc1N1CCN(C)CC1 [GR127935, 2′-methyl-4′-(5-methyl-[1,2,4]oxadiazol-3-yl)-biphenyl-4-carboxylic acid [4-methoxy-3-(4-methyl-piperazine-1-yl)-phenyl]amide]",Mean systemic arterial pressure,mice in normoxia,85±6 mmHg
same,pressure (RVSP) response to acute hypoxia,[2],abolished the pressure response to hypoxia
same,5-HT-induced increase in [3H]thymidine incorporation (mitogenic response to 5-HT),[1],not affected
same,protection against development of PH,rats,partial protection
same,muscularization of distal pulmonary vessels,[3]; [5],did not affect
same,right ventricular hypertrophy (RV/LV+S ratio),"[3]; 2-week chronic hypoxia, daily treatment, vs hypoxic vehicle-treated mice (41.5±1.5%)",did not differ
same,hypoxia-induced increase in RVSP,[3],did not differ
"Cl.Cn1ccc2cc3c(cc21)CCN3C(=O)Nc1cccnc1 [SB 206553, N-3-pyridinyl-3,5-dihydro-5-methyl-benzo[1,2-b:4,5-b′]dipyrrole-1(2H)-carboxamide hydrochloride]",5-HT-induced increase in [3H]thymidine incorporation (mitogenic response to 5-HT),[1],not affected
CCNC(C)Cc1cccc(C(F)(F)F)c1 (stereo not shown) [fenfluramine],mitogenic effect,[4],mitogenic
CNCCC(Oc1ccc(C(F)(F)F)cc1)c1ccccc1 (stereo not shown) [fluoxetine],Mean systemic arterial pressure,mice in normoxia,86±5 mmHg
same,baseline RVSP,"[2]; 10 mg/kg/day by gavage, normoxic ventilation",did not alter
same,5-HT-induced increase in [3H]thymidine incorporation (mitogenic response to 5-HT),[1],completely abolished
same,muscularization of distal pulmonary vessels,[3]; [5],markedly attenuated
same,hypoxia-induced increase in RVSP,[3],significantly attenuated
CN(C)CCCC1(c2ccc(F)cc2)OCc2cc(C#N)ccc21 (stereo not shown) [citalopram],Mean systemic arterial pressure,mice in normoxia,87±7 mmHg
CCN[C@@H](C)Cc1cccc(C(F)(F)F)c1 [dexfenfluramine],development of experimental hypoxic PH,experimental hypoxic PH,not to attenuate
